Results on 11 compounds are retold here after PubChem BioAssay (NCI).

As a reminder, the GI50 is the concentration giving 50% growth inhibition. One may read the TGI as the concentration giving total growth inhibition.

Among the test systems are DU-145 prostate; K-562 leukemia; RXF 393 renal; MCF7 breast; NCI-H460 lung; SNB-75 CNS; A498 renal; OVCAR-8 ovarian; HT29 colon; U251 CNS.
What all share (assay): DTP human tumour cell line panel, 48 h

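Cells were grown in 96-well plates and exposed to each compound for 48 hours at five concentrations; endpoints were interpolated linearly between bracketing concentrations, or set to the highest concentration if not reached. At the GI50, growth is halved. Definition used: TGI = concentration required for complete inhibition of growth.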

With `COC1C(O)C(CO)OC(OC2C(O)COC(OC3C(C)OC(OC4C(O[C@H]5CC[C@@]6(C)C(CC=C7[C@H]6CCC68C(=O)O[C@@](C)(CCCC(C)C)[C@H]6[C@@H](OC(C)=O)C[C@@]78C)C5(C)C)OCC(OS(=O)(=O)O)C4O)C(OC4OCC(O)C(O)C4O)C3O)C2O)C1O` (some centres undefined), the GI50 was 0.209 µM in the assay on DU-145 prostate; 0.0923 µM in the assay with K-562 leukemia; 0.184 µM in the assay on RXF 393 renal; 0.166 µM with MCF7 breast; 0.315 µM in the assay on NCI-H460 lung; 0.214 µM in the assay on SNB-75 CNS. The concentration for 50% growth inhibition (GI50) with A498 renal was 0.324 µM; in the assay with OVCAR-8 ovarian it was 0.165 µM; in the assay on HT29 colon, 0.0795 µM; in the assay on U251 CNS, 0.12 µM. Also, the TGI in the assay with DU-145 prostate stood at 0.656 µM; in the assay on K-562 leukemia, 0.242 µM; in the assay on RXF 393 renal, 0.66 µM; with MCF7 breast it was 0.431 µM; in the assay on NCI-H460 lung it was 1.45 µM; in the assay with SNB-75 CNS it was 0.465 µM. In addition, the TGI in the assay with A498 renal amounted to 0.821 µM; in the assay on OVCAR-8 ovarian it was 0.43 µM; in the assay on HT29 colon, 0.221 µM; in the assay on U251 CNS it was 0.272 µM.

For the compound `CC1(C)CC(=O)C2=C(C1)OC(N)=C(c1nc(-c3ccccc3)cs1)C2c1ccc(Br)cc1` (centres undefined), the GI50 in the assay with DU-145 prostate is 70.9 µg/mL; in the assay on K-562 leukemia, 68.8 µg/mL; with RXF 393 renal, 42.5 µg/mL; in the assay with MCF7 breast it was 18.2 µg/mL; in the assay with NCI-H460 lung it was 42.3 µg/mL; in the assay with SNB-75 CNS it was 0.547 µg/mL. In addition, the GI50 in the assay with A498 renal was 66.6 µg/mL; in the assay on OVCAR-8 ovarian, 116 µg/mL; with HT29 colon it was 67.4 µg/mL; in the assay on U251 CNS, 71.2 µg/mL. In addition, the TGI in the assay with DU-145 prostate is more than 150 µg/mL; in the assay on K-562 leukemia, more than 150 µg/mL; in the assay on RXF 393 renal, 126 µg/mL; in the assay on MCF7 breast, 101 µg/mL; with NCI-H460 lung it was more than 150 µg/mL; in the assay on SNB-75 CNS, 46.9 µg/mL. Further, the concentration for total growth inhibition (TGI) in the assay on A498 renal, with OVCAR-8 ovarian, in the assay on HT29 colon and with U251 CNS was more than 150 µg/mL throughout.

Take `N#CCCN1C/C(=C/c2ccc(Cl)cc2)C(=O)/C(=C/c2ccc(Cl)cc2)C1`: the GI50 was 1.9 µM with DU-145 prostate; 0.378 µM with K-562 leukemia; 1.22 µM in the assay with RXF 393 renal; 0.42 µM in the assay on MCF7 breast; 0.707 µM with NCI-H460 lung; 2.19 µM in the assay with SNB-75 CNS. In addition, the GI50 in the assay with A498 renal was 1.59 µM; in the assay with OVCAR-8 ovarian, 0.543 µM; in the assay on HT29 colon, 0.238 µM; in the assay with U251 CNS, 0.417 µM. In addition, the total growth inhibition concentration (TGI) was 4.2 µM with DU-145 prostate; more than 100 µM with K-562 leukemia; 2.61 µM in the assay on RXF 393 renal; 2.81 µM in the assay on MCF7 breast; 2.52 µM with NCI-H460 lung; 6.8 µM in the assay with SNB-75 CNS. The TGI stood at 3.11 µM in the assay with A498 renal, 11.6 µM with OVCAR-8 ovarian, 0.574 µM with HT29 colon and 1.48 µM with U251 CNS.

As for `O=C(O)Cc1cccnc1`, the concentration for total growth inhibition (TGI) in the assay on DU-145 prostate, in the assay on K-562 leukemia, with RXF 393 renal, in the assay on MCF7 breast, with NCI-H460 lung and with SNB-75 CNS was more than 100 µM throughout. Moreover, the concentration for total growth inhibition (TGI) with A498 renal, with OVCAR-8 ovarian, in the assay on HT29 colon and in the assay on U251 CNS was more than 100 µM in each case.

`CCC1(O)C(=O)OCc2c1cc1n(c2=O)Cc2cc3c(NC(=O)CN)cccc3nc2-1` (centres undefined): the GI50 in the assay on DU-145 prostate was 0.348 µM; in the assay on K-562 leukemia, 1.07 µM; with RXF 393 renal, 0.515 µM; with MCF7 breast it was 0.181 µM; with NCI-H460 lung, 0.122 µM; in the assay on SNB-75 CNS, 0.346 µM. Also, the GI50 in the assay on A498 renal was 0.883 µM; in the assay on OVCAR-8 ovarian, 0.557 µM; in the assay on U251 CNS, 0.16 µM. Also, the TGI with DU-145 prostate was more than 20.2 µM; in the assay with K-562 leukemia, more than 100 µM; in the assay on RXF 393 renal, 3.91 µM; with MCF7 breast it was more than 43.2 µM; with NCI-H460 lung it was 3.88 µM; in the assay on SNB-75 CNS, 5.14 µM. Besides, the total growth inhibition concentration (TGI) is 5.65 µM in the assay with A498 renal, 30.2 µM in the assay with OVCAR-8 ovarian, more than 79.3 µM in the assay on HT29 colon and 12.1 µM in the assay with U251 CNS.

Take `Cc1cc(N(CCCNc2ccnc3cc(Cl)ccc23)Cc2ccco2)nc(N2CCN(C)CC2)n1`: the GI50 was 5.69 µM in the assay on DU-145 prostate; 2.07 µM in the assay on K-562 leukemia; 1.79 µM in the assay on RXF 393 renal; 3.01 µM in the assay on MCF7 breast; 3.12 µM with NCI-H460 lung; 1.29 µM in the assay with SNB-75 CNS. The GI50 is 9.15 µM in the assay on A498 renal, 3.87 µM with OVCAR-8 ovarian, 2.73 µM in the assay on HT29 colon and 2.67 µM in the assay on U251 CNS. Besides, the concentration for total growth inhibition (TGI) turned out to be 18.8 µM with DU-145 prostate; 10.4 µM with K-562 leukemia; 3.55 µM in the assay with RXF 393 renal; 13.9 µM in the assay on MCF7 breast; 11.4 µM in the assay with NCI-H460 lung; 5.56 µM in the assay on SNB-75 CNS. In addition, the concentration for total growth inhibition (TGI) in the assay on A498 renal was 45.5 µM; with OVCAR-8 ovarian, 16.8 µM; in the assay on HT29 colon it was 11 µM; in the assay on U251 CNS it was 6.92 µM.

Take `Nc1nc(Nc2ccccc2SSc2ccccc2Nc2nc(N)nc(C(Cl)(Cl)Cl)n2)nc(C(Cl)(Cl)Cl)n1`: the GI50 with DU-145 prostate was 9.57 µM; in the assay on K-562 leukemia, 3.93 µM; in the assay with RXF 393 renal it was 3.47 µM; with MCF7 breast, 6.46 µM; with NCI-H460 lung, 4 µM; in the assay with SNB-75 CNS, 2.94 µM. In addition, the GI50 is 24.3 µM in the assay with A498 renal, 5.38 µM in the assay with OVCAR-8 ovarian, 22.3 µM in the assay with HT29 colon and 2.29 µM in the assay with U251 CNS. Further, the TGI in the assay on DU-145 prostate was 24.4 µM; in the assay with K-562 leukemia, 17.7 µM; in the assay with RXF 393 renal, 10.3 µM; in the assay with MCF7 breast, 33 µM; in the assay with NCI-H460 lung, 14.7 µM; in the assay with SNB-75 CNS, 22.3 µM. Besides, the TGI was 88.8 µM in the assay on A498 renal, 24.7 µM in the assay with OVCAR-8 ovarian, 79.7 µM in the assay on HT29 colon and 5.85 µM in the assay with U251 CNS.

With `NS(=O)(=O)c1ccc(-c2cc3ccncc3cc2OCc2ccccc2)cc1`, the GI50 in the assay on DU-145 prostate was 16.4 µM; in the assay on K-562 leukemia, more than 19.6 µM; in the assay with RXF 393 renal, 7.16 µM; in the assay on MCF7 breast, 14.5 µM; in the assay on NCI-H460 lung, 9.77 µM; with SNB-75 CNS, 5.27 µM. In addition, the GI50 in the assay on A498 renal was 5.65 µM; in the assay with OVCAR-8 ovarian it was 8.19 µM; in the assay on HT29 colon it was more than 16.4 µM; with U251 CNS it was more than 21.5 µM. Further, the total growth inhibition concentration (TGI) in the assay on DU-145 prostate, in the assay with K-562 leukemia, in the assay on RXF 393 renal, in the assay with MCF7 breast, in the assay with NCI-H460 lung and in the assay with SNB-75 CNS was more than 25 µM each time. The total growth inhibition concentration (TGI) in the assay with A498 renal, with OVCAR-8 ovarian, with HT29 colon and in the assay with U251 CNS was more than 25 µM throughout.

For `Cc1ccc(-c2nc([P+](c3ccccc3)(c3ccccc3)c3ccccc3)c(S(=O)(=O)c3ccc(C)cc3)o2)cc1`, the GI50 in the assay with DU-145 prostate is 1.27 µM; with K-562 leukemia it was 0.312 µM; in the assay with RXF 393 renal, 1.4 µM; with MCF7 breast, 1.52 µM; in the assay on NCI-H460 lung, 1.64 µM; in the assay with SNB-75 CNS it was 1.21 µM. Moreover, the GI50 is 1.61 µM in the assay on A498 renal, 1.32 µM in the assay on OVCAR-8 ovarian, 1.7 µM in the assay on HT29 colon and 1.14 µM in the assay with U251 CNS. Moreover, the TGI worked out at 2.52 µM in the assay with DU-145 prostate; 3.22 µM with K-562 leukemia; 2.79 µM with RXF 393 renal; 3.83 µM with MCF7 breast; 3.43 µM in the assay with NCI-H460 lung; 4.41 µM with SNB-75 CNS. Also, the concentration for total growth inhibition (TGI) in the assay on A498 renal amounted to 4.77 µM; with OVCAR-8 ovarian, 4.17 µM; in the assay with HT29 colon, 4.17 µM; with U251 CNS, 2.43 µM.

As for `N#CCN1CCn2c1nsc2=S`, the GI50 is more than 100 µM in the assay with DU-145 prostate; 48.2 µM in the assay with K-562 leukemia; more than 100 µM with RXF 393 renal; 55.3 µM with MCF7 breast; more than 100 µM with NCI-H460 lung; more than 100 µM with SNB-75 CNS. For the same compound, the GI50 in the assay on A498 renal, in the assay on OVCAR-8 ovarian, in the assay on HT29 colon and in the assay with U251 CNS was more than 100 µM each time. The TGI in the assay with DU-145 prostate, in the assay on K-562 leukemia, in the assay with RXF 393 renal, in the assay with MCF7 breast, in the assay on NCI-H460 lung and with SNB-75 CNS was more than 100 µM in each case. Besides, the total growth inhibition concentration (TGI) with A498 renal, in the assay with OVCAR-8 ovarian, in the assay with HT29 colon and in the assay on U251 CNS was more than 100 µM each time.

`O=C(Nc1cccc(-n2cc(-c3ccncc3)c(-c3cc(O)cc(Cl)c3)n2)c1)c1cc(C(F)(F)F)cc(C(F)(F)F)c1`: the GI50 is 5.19 µM in the assay with DU-145 prostate; 3.24 µM in the assay on K-562 leukemia; 1.69 µM in the assay on RXF 393 renal; 2.86 µM with MCF7 breast; 3.04 µM with NCI-H460 lung; 2.8 µM in the assay with SNB-75 CNS. For the same compound, the GI50 in the assay on A498 renal was 4.75 µM; in the assay with OVCAR-8 ovarian, 3.58 µM; in the assay on HT29 colon, 2.5 µM; in the assay on U251 CNS, 3.23 µM. Moreover, the total growth inhibition concentration (TGI) with DU-145 prostate was more than 100 µM; in the assay on K-562 leukemia, more than 100 µM; in the assay with RXF 393 renal, 4.35 µM; with MCF7 breast it was more than 100 µM; with NCI-H460 lung, more than 100 µM; with SNB-75 CNS, more than 100 µM. Further, the total growth inhibition concentration (TGI) with A498 renal was 90.8 µM; in the assay with OVCAR-8 ovarian it was more than 100 µM; with HT29 colon it was 37.7 µM; in the assay with U251 CNS it was 24.4 µM.
